From patent publication US20060287247A1, “Halogen-substituted thienyl compounds” (priority 2001, published 2006)

How the values were obtained:
S. aureus ATCC 29213 = assay: NCCLS broth microdilution MIC; format: cell-based, Staphylococcus aureus; conditions: A = S. aureus ATCC 29213
Method: (§1) Compounds according to this invention were screened for their in vitro activities against selected species of bacteria and fungi. The minimal inhibition concentration (MIC) of these compounds was determined using the National Committee for Clinical Laboratory Standards (NCCLS) broth microdilution assay in microtiter plates, as set forth in: (1) the guidelines of the National Committee for Clinical Laboratory Standards (NCCLS) Document M7-A4 (NCCLS, 1997); (2) the guidelines of the National Committee for Clinical Laboratory Standards (NCCLS) Document M11-A4 (NCCLS, 1997); and (3) the guidelines and reference method of the National Committee for Clinical Laboratory Standards (NCCLS) Document M27-T (NCCLS, 1995). For antifungal essays, the method recommended in Murray, P R., 1995 Manual of Clinical Microbiology (ASM Press, Washington, D.C.), was employed. […]

E. faecalis ATCC 29212 = assay: NCCLS broth microdilution MIC; format: cell-based, Enterococcus faecalis; conditions: B = E. faecalis ATCC 29212
Method: as §1

B. cereus ATCC 11778 = assay: NCCLS broth microdilution MIC; format: cell-based, Bacillus cereus; conditions: C = B. cereus ATCC 11778
Method: as §1

E. coli ATCC 25922 = assay: NCCLS broth microdilution MIC; format: cell-based; conditions: D = E. coli ATCC 25922
Method: as §1

C. albicans ATCC 38247 = assay: NCCLS broth microdilution MIC (antifungal); format: cell-based; conditions: E = C. albicans ATCC 38247
Method: as §1

S. pneumoniae ATCC 49619 = assay: NCCLS broth microdilution MIC; format: cell-based, Streptococcus pneumoniae; conditions: F = S. pneumoniae ATCC 49619
Method: as §1

5′-AAAAAGACAAAAA-3′ = format: binding; conditions: DNA sequence 5′-AAAAAGACAAAAA-3′; pH 7.0, 22° C.
Method: (§2) A number of compounds according to this invention were screened for their ability to bind to three DNA sites, using DNase I footprinting. Generally, the procedure described in Dervan, WO 98/50582 (1998), was followed.
(§3) A plasmid was prepared by hybridizing two sets of 5′-phosphorylated complementary oligonucleotides, one set being
(§4) The target sites and their complements are identified in bold underline.
(§5) The resulting duplexes were ligated to the large pUC19 AvaI/SalI restriction fragment. The 3′-P32 end-labeled EcoRI/PvuII fragment was prepared by digesting the plasmid with EcoRI and PvuII with simultaneous fill-in using Sequenase v. 2.0, [alpha-P32]-deoxyadenosine-5′-triphosphate, and [alpha-P32]-thymidine-5′-triphosphate, and isolating the cloned fragment by nondenaturing gel electrophoresis. Standard methods were used for all DNA manipulations, including A and G sequencing. See, e.g., Maxam et al., Methods Enzymol., 1980, 65, 499-560; Iverson et al., Methods Enzymol., 1987, 15, 7823-7830; and Sambrook et al., 1989, Molecular Cloning, 2nd ed., Cold Spring Harbor Laboratory Press: Cold Spring Harbor, N.Y.
(§6) Quantitative DNase I footprint titration experiments were carried out as described previously (Dervan, WO 98/50582, 1998, “Dervan '582”) with the following changes. All reactions were carried out in a total volume of 400 μL, with polyamide stock solution or water added to 15,000 cpm radiolabeled restriction fragment affording final solution conditions of 10 mM Tris.HCl, 10 mM KCl, 10 mM MgCl2, 5 mM CaCl2, pH 7.0 and 0.01 nM, 0.1 nM, 1.0 nM, 10.0 nM polyamide or no polyamide for reference lanes. The polyamides were allowed to equilibrate at 22° C. for 16 hr. Footprinting reactions were initiated with addition of 10 μL of a DNase I stock solution (at the appropriate concentration to give ˜50% intact DNA) containing 1 mM DTT and allowed to proceed for 7 min at 22° C. The reactions were stopped, ethanol precipitated, resuspended in loading buffer, heat denatured, and placed on ice as described in Dervan '582. The reaction products were separated on a precast 8% polyacrylamide denaturing sequencing Castaway gel with 32 preformed wells from Stratagene in 1× TBE at 2000 V. Gels were dried according to the manufacturer's instructions and exposed to a storage phosphor screen (Molecular Dynamics). Quantitation and data analysis were carried out as described in Dervan '582.

5′-AAAAAGCAAAAA-3′ = format: binding; conditions: DNA sequence 5′-AAAAAGCAAAAA-3′; pH 7.0, 22° C.
Method: as §2, §3, §4, §5, §6

5′-AAAAAGTACAAAAA-3′ = format: binding; conditions: DNA sequence 5′-AAAAAGTACAAAAA-3′; pH 7.0, 22° C.
Method: as §2, §3, §4, §5, §6

Row | Structure (SMILES) | Minimum Inhibitory Concentration (MIC) (S. aureus ATCC 29213) | Minimum Inhibitory Concentration (MIC) (E. faecalis ATCC 29212) | Minimum Inhibitory Concentration (MIC) (B. cereus ATCC 11778) | Minimum Inhibitory Concentration (MIC) (E. coli ATCC 25922) | Minimum Inhibitory Concentration (MIC) (C. albicans ATCC 38247) | Minimum Inhibitory Concentration (MIC) (S. pneumoniae ATCC 49619) | Equilibrium Association Constant (Ka) (5′-AAAAAGACAAAAA-3′) | Equilibrium Association Constant (Ka) (5′-AAAAAGCAAAAA-3′) | Equilibrium Association Constant (Ka) (5′-AAAAAGTACAAAAA-3′)
1 | CN1CCCN(C(=O)CCNC(=O)c2cc(NC(=O)c3cc(NC(=O)CCNC(=O)c4cc(NC(=O)c5cc(NC(=O)c6ccc(Br)s6)cn5C)cn4C)cn3C)cn2C)CC1 [Id-16] | >32 µg/mL | >32 µg/mL | >32 µg/mL | >32 µg/mL | >32 µg/mL | +++ (+++ = MIC ≦4) | 5e+10 M⁻¹ | 5e+10 M⁻¹ | ≧1 × 10^11 M^−1
2 | CCN(CC)CCNC(=O)CCNC(=O)c1cc(NC(=O)c2cc(NC(=O)CCNC(=O)c3cc(NC(=O)c4cc(NC(=O)c5ccc(Br)s5)cn4C)cn3C)cn2C)cn1C [Id-22] | >32 µg/mL | +++ (+++ = MIC ≦4) | +++ (+++ = MIC ≦4) | >32 µg/mL | >32 µg/mL | +++ (+++ = MIC ≦4) | 2e+08 M⁻¹ | 2e+08 M⁻¹ | ≧1 × 10^11 M^−1
3 | CN(C)CCCNC(=O)CCNC(=O)c1cc(NC(=O)c2cc(NC(=O)CCNC(=O)c3cc(NC(=O)c4cc(NC(=O)c5ccc(Br)s5)cn4C)cn3C)cn2C)cn1C [Id-18] | >32 µg/mL | ++ (++ = MIC between 4 and 12) | + (+ = MIC from 12 to 32, inclusive) | >32 µg/mL | >32 µg/mL | +++ (+++ = MIC ≦4) | ≧1 × 10^11 M^−1 | ≧1 × 10^11 M^−1 | ≧1 × 10^11 M^−1
4 | Cn1cc(NC(=O)c2cc(NC(=O)CCNC(=O)c3cc(NC(=O)c4cc(NC(=O)c5ccc(Br)s5)cn4C)cn3C)cn2C)cc1C(=O)NCCC(=O)NCCCCCCN [Id-21] | >32 µg/mL | +++ (+++ = MIC ≦4) | +++ (+++ = MIC ≦4) | >32 µg/mL | >32 µg/mL | +++ (+++ = MIC ≦4) | 1e+10 M⁻¹ | 5e+10 M⁻¹ | ≧1 × 10^11 M^−1
5 | Cn1cc(NC(=O)c2cc(NC(=O)CCNC(=O)c3cc(NC(=O)c4cc(NC(=O)c5cc(Br)c(Br)s5)cn4C)cn3C)cn2C)cc1C(=O)NCCC(=O)NCC(C)(C)CN [Id-4] | +++ (+++ = MIC ≦4) | +++ (+++ = MIC ≦4) | +++ (+++ = MIC ≦4) | >32 µg/mL | >32 µg/mL | +++ (+++ = MIC ≦4) | 1e+10 M⁻¹ | 5e+09 M⁻¹ | 5e+11 M⁻¹

Now from value to molecule, other results behind:

Row | Minimum Inhibitory Concentration (MIC) (S. aureus ATCC 29213) | Minimum Inhibitory Concentration (MIC) (E. faecalis ATCC 29212) | Minimum Inhibitory Concentration (MIC) (B. cereus ATCC 11778) | Minimum Inhibitory Concentration (MIC) (E. coli ATCC 25922) | Minimum Inhibitory Concentration (MIC) (C. albicans ATCC 38247) | Minimum Inhibitory Concentration (MIC) (S. pneumoniae ATCC 49619) | Structure (SMILES) | Equilibrium Association Constant (Ka) (5′-AAAAAGACAAAAA-3′) | Equilibrium Association Constant (Ka) (5′-AAAAAGCAAAAA-3′) | Equilibrium Association Constant (Ka) (5′-AAAAAGTACAAAAA-3′)
6 | +++ (+++ = MIC ≦4) | +++ (+++ = MIC ≦4) | +++ (+++ = MIC ≦4) | >32 µg/mL | >32 µg/mL | +++ (+++ = MIC ≦4) | CN(C)CC(C)(C)CNC(=O)CCNC(=O)c1cc(NC(=O)c2cc(NC(=O)CCNC(=O)c3cc(NC(=O)c4cc(NC(=O)c5cc(Br)c(Br)s5)cn4C)cn3C)cn2C)cn1C [Id-7] | 5e+08 M⁻¹ | 5e+08 M⁻¹ | ≧1 × 10^11 M^−1
7 | >32 µg/mL | +++ (+++ = MIC ≦4) | +++ (+++ = MIC ≦4) | >32 µg/mL | >32 µg/mL | +++ (+++ = MIC ≦4) | CC(C)N(CCNC(=O)CCNC(=O)c1cc(NC(=O)c2cc(NC(=O)CCNC(=O)c3cc(NC(=O)c4cc(NC(=O)c5ccc(Br)s5)cn4C)cn3C)cn2C)cn1C)C(C)C [Id-19] | 5e+09 M⁻¹ | 5e+09 M⁻¹ | ≧1 × 10^11 M^−1
8 | + (+ = MIC from 12 to 32, inclusive) | ++ (++ = MIC between 4 and 12) | +++ (+++ = MIC ≦4) | >32 µg/mL | >32 µg/mL | +++ (+++ = MIC ≦4) | Cn1cc(NC(=O)c2cc(NC(=O)CCNC(=O)c3cc(NC(=O)c4cc(NC(=O)c5ccc(Br)s5)cn4C)cn3C)cn2C)cc1C(=O)NCCC(=O)NCCCCN [Id-17] | ≧1 × 10^11 M^−1 | ≧1 × 10^11 M^−1 | ≧1 × 10^11 M^−1
9 | +++ (+++ = MIC ≦4) | +++ (+++ = MIC ≦4) | +++ (+++ = MIC ≦4) | >32 µg/mL | >32 µg/mL | +++ (+++ = MIC ≦4) | Cn1cc(NC(=O)c2cc(NC(=O)CCNC(=O)c3cc(NC(=O)c4cc(NC(=O)c5cc(Br)c(Br)s5)cn4C)cn3C)cn2C)cc1C(=O)NCCC(=O)NCCCCCCN [Id-2] | 5e+08 M⁻¹ | 5e+08 M⁻¹ | 5e+09 M⁻¹
10 | +++ (+++ = MIC ≦4) | +++ (+++ = MIC ≦4) | +++ (+++ = MIC ≦4) | >32 µg/mL | >32 µg/mL | +++ (+++ = MIC ≦4) | CN(C)CCCNC(=O)CCNC(=O)c1cc(NC(=O)c2cc(NC(=O)CCNC(=O)c3cc(NC(=O)c4cc(NC(=O)c5cc(Br)c(Br)s5)cn4C)cn3C)cn2C)cn1C [Id-1] | ≧1 × 10^11 M^−1 | ≧1 × 10^11 M^−1 | ≧1 × 10^11 M^−1
11 | +++ (+++ = MIC ≦4) | +++ (+++ = MIC ≦4) | +++ (+++ = MIC ≦4) | >32 µg/mL | >32 µg/mL | +++ (+++ = MIC ≦4) | Cn1cc(NC(=O)c2cc(NC(=O)CCNC(=O)c3cc(NC(=O)c4cc(NC(=O)c5cc(Br)c(Br)s5)cn4C)cn3C)cn2C)cc1C(=O)NCCC(=O)NCCN1CCCCC1 [Id-5] | 2e+10 M⁻¹ | 2e+09 M⁻¹ | 1e+11 M⁻¹
